Results from PMC9674596, “Origin of acetylcholine antagonism in ELIC, a bacterial pentameric ligand-gated ion channel” (Communications Biology, 2022).
“Also recorded” adds a separate entry of the source.

How the values were obtained:
ELIC L240A (L9′A) = molecular target: T1, ELIC L240A (L9′A) (Dickeya chrysanthemi, UniProt P0C7B7, L239A); assay: Two-electrode voltage clamp, L240A (L9′A) mutant ELIC expressed in Xenopus laevis oocytes; type: cell-based, Erwinia chrysanthemi
T1 construct: expressed in transfected cells; host or cells: Xenopus laevis oocytes injected with cRNA from ELIC-pTLN
Method: (§1) Stage V-VI Xenopus laevis oocytes were isolated[72] and deflocculated enzymatically in ND96 buffer without Ca^2+ (96 mM NaCl, 2 mM KCl, 1 mM MgCl2, 2 mM pyruvate, 5 mM HEPES, pH 7.4), but supplemented with 1 mg/mL collagenase B and 1 mg/mL trypsin inhibitor, for 2 h at room temperature under constant stirring. The deflocculation buffer was then gradually removed by washing the oocytes in ND96 buffer (96 mM NaCl, 2 mM KCl, 1 mM MgCl2, 1 mM CaCl2, 2 mM pyruvate, 5 mM HEPES, pH 7.4) for several iterations. The oocytes were then allowed to stir for an additional hour at room temperature under constant stirring with the buffer being periodically replaced until clear. To obtain optimal receptor expression, individually selected and healthy oocytes were injected with 0.2 ng cRNA for wild-type ELIC and 5 ng cRNA for mutants. Subsequently, oocytes were incubated for one day at 16 °C in ND96^+ buffer (96 mM NaCl, 2 mM KCl, 1 mM MgCl2, 1 mM CaCl2, 2 mM pyruvate, and 5 mM HEPES at pH 7.6). After expression, injected oocytes were placed in a RC-1Z oocyte chamber (Harvard Apparatus; Hamden, CT) containing buffer (pH 7.4) composed of 150 mM NaCl, 0.5 mM BaCl2, 10 mM HEPES, and 1 mM dithiothreitol or 1 µM atropine if cysteamine, or ACh, was used in the experiment, respectively. The presence of the reducing agent, dithiothreitol, ensures that the sulfhydryl group of cysteamine remains reduced.
(§2) Once in the oocyte chamber, whole-cell currents were recorded using a two-electrode voltage-clamp apparatus (OC-725C oocyte clamp; Harvard Apparatus), with a buffer flow rate of 5–10 mL min^−1. Currents in response to various additions of cysteamine and/or ACh, were measured with the transmembrane voltage clamped at −60 mV. Dose response curves for each wild-type and mutant ELIC were acquired from at least five oocytes in two different batches.
(§3) For identifying the half maximal effective concentration (EC50) and apparent Hill coefficient (nH) of cysteamine, dose response curves were created by taking the magnitude of each cysteamine-activated peak current (I) and normalizing this value to the maximal peak current in the presence of excess agonist (Imax). The log (base 10) cysteamine concentration in molar was then plotted on the x-axis against the fractional response (I/Imax) on the y-axis. The data was fitted using nonlinear regression with a variable slope sigmoidal dose response (Eq. 1, below) in GraphPad Prism (v.8.0.0).1 y=1/1+10^nH^LogEC50−X
(§4) Individual EC50 and Hill coefficients were averaged for each oocyte to derive a mean ± standard deviation. For identifying a half maximal inhibitory concentration (IC50) and Hill coefficient of ACh, a concentration of cysteamine corresponding to its EC50 was used in the presence of increasing concentrations of ACh. […]

[1] = molecular target: T2, ELIC L240A (L9′A) + A75D/F133W (Dickeya chrysanthemi, UniProt P0C7B7, A75D/F133W/L239A); assay: Two-electrode voltage clamp, L9′A + A75D/F133W triple mutant ELIC expressed in Xenopus laevis oocytes; type: cell-based, Erwinia chrysanthemi
T2 construct: expressed in transfected cells; host or cells: Xenopus laevis oocytes injected with cRNA
Method: as §1, §2, §3, §4

wild-type ELIC = molecular target: T3, wild-type ELIC (Dickeya chrysanthemi, UniProt P0C7B7, INS163G); conditions: cited from earlier work
T3 construct: expressed in transfected cells; host or cells: Xenopus laevis oocytes injected with cRNA from ELIC-pTLN

**Q.** For `NCCS` [cysteamine], which “Current on application of ligand alone” value (ELIC L240A (L9′A); L9′A, 30 s applications of ACh 0.5 to 50 mM, then 5 mM cysteamine) is on record?
**A.** robust peak current; also recorded: robust activation

**Q.** What about the “Activation Hill coefficient” value (ELIC L240A (L9′A); L240A (L9′A), cysteamine as agonist) of the same compound?
**A.** 2.8 ± 0.1

**Q.** And the EC50 (ELIC L240A (L9′A); L240A (L9′A), cysteamine as agonist, read-out: Activation EC50)?
**A.** 150 ± 10 µM

**Q.** And the “Current on application of ligand alone” value ([1]; L9′A + A75D/F133W, 30 s applications of ACh 0.5 to 50 mM, then 5 mM cysteamine)?
**A.** robust peak current; also recorded: robust activation

**Q.** What about the “Activation Hill coefficient” value ([1]; L240A (L9′A) + A75D/F133W, cysteamine as agonist) of the same compound?
**A.** 3.7 ± 0.3

**Q.** And the EC50 ([1]; L240A (L9′A) + A75D/F133W, cysteamine as agonist, read-out: Activation EC50)?
**A.** 4.3 ± 0.6 mM

**Q.** What about the “Action on ELIC” value (wild-type ELIC) of the same compound?
**A.** agonists
